Test results from patent US10166216B2 (Rigel Pharmaceuticals, Inc., priority 2006, dated 2019).

Target: Axl (Homo sapiens (Human), UniProt P30530)
Test: Phospho-Akt in-cell Western assay (Axl-antibody cross-linking stimulation)
Type: cell-based
Details: inhibition of Axl activity
Method: The working solution: dilute the stock 1:20 with PBS immediately before use. • 10% SDS: working solution: 5% SDS (sodium dodecylsulfate), diluted in PBS Methods: Day 1:
A 96 well TC (tissue culture treated) plate was coated with 10 μg/mL poly-L-Lysine at 37° C. for 30 min, washed twice with PBS, and air-dried for 5 minutes before cells were added. Hela cells were seeded at 10,000 cells/well and the cells were starved in 100 μL starvation medium containing Axl/Fc for 24 hrs.
The cells were pre-treated with test compounds by adding 100 μL of 2× test compound to the starvation medium on the cells. The cells were incubated at 37° C. for 1 hr before stimulation.
The resulting mix was warmed to 37° C. 50 μL of 5× Axl 1st/2nd of antibody cluster was added to the cells and the cells were incubated at 37° C. for 5 min.
After 5 minutes stimulation, the plate was flicked to remove medium and the plate was tapped onto paper towels. Formaldehyde (4.0% in PBS, 100 μL) was added to fix the cells and the cells were incubated at ambient temperature for 20 min without shaking.
The cells were washed with a plate washer buffer to remove the formaldehyde solution. The plate was flicked to removed excess wash buffer and tapped onto paper towels. Quenching buffer (100 μL) was added to each well and the cells were incubated at ambient temperature for 20 minutes without shaking.
The cells were washed with a plate washer buffer to remove the quenching buffer. Blocking buffer (100 μL) was added and the cells were incubated at ambient temperature for at least an hour with gentle shaking.
The cells were washed with a plate washer buffer and diluted primary antibody (50 μL) was added to each well (blocking buffer was added to the negative control wells instead). The plates were incubated overnight at 4° C. with gentle shaking.
The wash buffer was removed, diluted secondary antibody (100 μL) was added, and the cells were incubated at ambient temperature for 1 hour with gentle shaking. During the incubation, the chemiluminescent reagent was brought to ambient temperature.
The secondary antibody was removed by washing the cells 1× with wash buffer, 1× with PBS by plate washer. The PBS was removed from the plate and the chemiluminescent reagent (80 μL: 40 μL A and 40 μL B) was added to each well at ambient temperature.
The resulting chemiluminescence was read with a Luminomitor within 10 minutes to minimize changes in signal intensity. […] The plate was tapped onto paper towels to remove excess liquid from wells and air-dried at ambient temperature for 5 minutes.
Crystal Violet working solution (60 μL) was added to each well and the cells were incubated at ambient temperature for 30 min. The crystal violet solution was removed, and the wells were rinsed with PBS, then washed 3× with PBS (200 μL) for 5 minutes each.
5% SDS solution (70 μL) was added to each well and the cells were incubated on a shaker for 30 min at ambient temperature.
This relative cell number was then used to normalize each luminescence reading. […]

[1] = Hela cells, phospho-Akt readout, Table 1, formula (Ia1)
[2] = phospho-Akt in-cell Western assay
[3] = Hela cells, phospho-Akt readout, Table 4, formula (Ib2)

Axl, sequence (P30530 26-894): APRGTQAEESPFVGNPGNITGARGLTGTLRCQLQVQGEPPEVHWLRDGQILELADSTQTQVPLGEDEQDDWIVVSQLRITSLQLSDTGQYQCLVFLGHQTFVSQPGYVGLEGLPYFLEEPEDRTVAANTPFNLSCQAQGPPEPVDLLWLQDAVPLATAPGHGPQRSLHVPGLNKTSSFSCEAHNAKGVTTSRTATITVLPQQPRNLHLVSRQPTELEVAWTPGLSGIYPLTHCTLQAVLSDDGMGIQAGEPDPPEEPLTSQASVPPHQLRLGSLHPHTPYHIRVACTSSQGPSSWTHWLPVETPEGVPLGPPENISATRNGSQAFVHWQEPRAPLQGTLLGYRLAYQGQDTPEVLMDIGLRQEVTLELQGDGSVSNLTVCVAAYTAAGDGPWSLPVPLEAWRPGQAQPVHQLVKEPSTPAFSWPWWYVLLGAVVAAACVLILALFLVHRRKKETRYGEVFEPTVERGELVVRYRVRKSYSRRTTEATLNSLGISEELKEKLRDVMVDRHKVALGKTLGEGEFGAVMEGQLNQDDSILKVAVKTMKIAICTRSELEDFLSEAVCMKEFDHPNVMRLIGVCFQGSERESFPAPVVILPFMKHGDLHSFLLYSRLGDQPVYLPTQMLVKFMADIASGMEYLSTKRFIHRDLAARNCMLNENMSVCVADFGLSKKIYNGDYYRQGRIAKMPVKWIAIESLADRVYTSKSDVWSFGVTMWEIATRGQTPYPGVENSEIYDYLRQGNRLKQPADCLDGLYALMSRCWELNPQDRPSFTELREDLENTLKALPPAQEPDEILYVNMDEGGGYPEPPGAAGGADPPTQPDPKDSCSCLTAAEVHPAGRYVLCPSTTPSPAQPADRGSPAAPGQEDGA

| Structure (SMILES) | IC50 [2] [nM] | also measured |
| --- | --- | --- |
| Nc1nc(Nc2ccc(OCCN3CCCC3)cc2)nn1-c1nc(O)c2c(n1)CCCC2 [Compound 76, 2-(5-amino-3-(4-(2-(pyrrolidin-1-yl)ethoxy)phenylamino)-1H-1,2,4-triazol-1-yl)-5,6,7,8-tetrahydroquinazolin-4-ol] |  | IC50 [1]: > 20000 nM |
| COc1cc2ccnc(-n3nc(Nc4ccc(OCCN5CCCC5)cc4)nc3N)c2cc1OC [Compound 77, 1-(6,7-dimethoxyisoquinolin-1-yl)-N^3-(4-(2-(pyrrolidin-1-yl)ethoxy)phenyl)-1H-1,2,4-triazole-3,5-diamine] |  | IC50 [1]: < 1000 nM |
| Nc1nc(Nc2ccc(OCCN3CCCC3)cc2)nn1-c1nccc2[nH]c(=O)ccc12 [Compound 78, 5-(5-amino-3-(4-(2-(pyrrolidin-1-yl)ethoxy)phenylamino)-1H-1,2,4-triazol-1-yl)-1,6-naphthyridin-2(1H)-one] |  | IC50 [1]: < 1000 nM |
| Nc1nc(Nc2ccc(N3CCN(C4CCCCC4)CC3)cc2)nn1-c1nccc2ccccc12 [Compound 81, N^3-(4-(4-cyclohexylpiperazin-1-yl)phenyl)-1-(isoquinolin-1-yl)-1H-1,2,4-triazole-3,5-diamine] | < 1000 |  |
| COc1cc2c(-n3nc(Nc4ccc(N5CCN(C6CCCCC6)CC5)cc4)nc3N)ncnc2cc1O [Compound 82, 4-(5-amino-3-(4-(4-cyclohexylpiperazin-1-yl)phenylamino)-1H-1,2,4-triazol-1-yl)-6-methoxyquinazolin-7-ol] | < 1000 |  |
| COc1cc2ncnc(-n3nc(N)nc3Nc3ccc(N4CCN(C5CCCCC5)CC4)cc3)c2cc1OC [Compound 83, N^5-(4-(4-cyclohexylpiperazin-1-yl)phenyl)-1-(6,7-dimethoxyquinazolin-4-yl)-1H-1,2,4-triazole-3,5-diamine] |  | IC50 [3]: < 1000 nM |
| CN1CCN(c2ccc(Nc3nc(N)n(-c4nccc5ccccc45)n3)cc2)CC1 [Compound 84, 1-(isoquinolin-1-yl)-N^3-(4-(4-methylpiperazin-1-yl)phenyl)-1H-1,2,4-triazole-3,5-diamine] | < 1000 |  |
| CN1CCN(c2ccc(Nc3nc(N)n(-c4ncnc5ccc(Cl)cc45)n3)cc2)CC1 [Compound 85, 1-(6-chloroquinazolin-4-yl)-N^3-(4-(4-methylpiperazin-1-yl)phenyl)-1H-1,2,4-triazole-3,5-diamine] | < 1000 |  |
| CN1CCN(c2ccc(Nc3nc(N)nn3-c3ncnc4ccc(Cl)cc34)cc2)CC1 [Compound 86, 1-(6-chloroquinazolin-4-yl)-N^5-(4-(4-methylpiperazin-1-yl)phenyl)-1H-1,2,4-triazole-3,5-diamine] |  | IC50 [3]: < 1000 nM |
| Nc1nc(Nc2ccc(N3CCN(C4CCCCC4)CC3)c(F)c2)nn1-c1nccc2ccccc12 [Compound 87, N^3-(4-(4-cyclohexylpiperazin-1-yl)-3-fluroophenyl)-1-(isoquinolin-1-yl)-1H-1,2,4-triazole-3,5-diamine] | < 1000 |  |
| CC(=O)N1CCN(c2ccc(Nc3nc(N)n(-c4nccc5ccccc45)n3)cc2)CC1 [Compound 88, 1-(4-(4-(5-amino-1-(isoquinolin-1-yl)-1H-1,2,4-triazol-3-ylamino)phenyl)piperazin-1-yl)ethanone] | 1000 to 10000 |  |
| CN1CCN(c2ccc(Nc3nc(N)n(-c4nccc5ccccc45)n3)cc2F)CC1 [Compound 90, N^3-(3-fluoro-4-(4-methylpiperazin-1-yl)phenyl)-1-(isoquinolin-1-yl)-1H-1,2,4-triazole-3,5-diamine] | < 1000 |  |
| Nc1nc(Nc2ccc(N3CCN(C4CCCCC4)CC3)c(Cl)c2)nn1-c1nccc2ccccc12 [Compound 91, N^3-(3-chloro-4-(4-cyclohexylpiperazin-1-yl)phenyl)-1-(isoquinolin-1-yl)-1H-1,2,4-triazole-3,5-diamine] | < 1000 |  |
| CN1CCN(c2ccc(Nc3nc(N)n(-c4ncc5c(n4)-c4ccccc4CC5)n3)cc2)CC1 [Compound 92, 1-(5,6-dihydrobenzo[h]quinazolin-2-yl)-N^3-(4-(4-methylpiperazin-1-yl)phenyl)-1H-1,2,4-triazole-3,5-diamine] | < 1000 |  |
| Nc1nc(Nc2ccc(N3CCN(C4CC5CCC4C5)CC3)cc2)n(-c2nc3ccccc3s2)n1 (stereo not shown) [Compound 95, 1-(benzo[d]thiazol-2-yl)-N^5-(4-(4-(bicyclo[2.2.1]heptan-2-yl)piperazin-1-yl)phenyl)-1H-1,2,4-triazole-3,5-diamine] |  | IC50 [3]: > 20000 nM |
| COc1cc2ncnc(-n3nc(N)nc3Nc3ccc(N4CCN(C5CC6CCC5C6)CC4)cc3)c2cc1OC (stereo not shown) [Compound 100, N^5-(4-(4-(bicyclo[2.2.1]heptan-2-yl)piperazin-1-yl)phenyl)-1-(6,7-dimethoxyquinazolin-4-yl)-1H-1,2,4-triazole-3,5-diamine] |  | IC50 [3]: < 1000 nM |
| COc1cc2c(-n3nc(Nc4ccc(OCCN5CCCC5)cc4)nc3N)ncnc2cc1OCc1ccccc1 [Compound 104, 1-(7-(benzyloxy)-6-methoxyquinazolin-4-yl)-N^3-(4-(2-(pyrrolidin-1-yl)ethoxy)phenyl)-1H-1,2,4-triazole-3,5-diamine] |  | IC50 [1]: > 20000 nM |

More lines, main results first:

| IC50 [2] [nM] | Structure (SMILES) | also measured |
| --- | --- | --- |
| < 1000 | Nc1nc(Nc2ccc(N3CCN(C4CCCCC4)CC3)cc2)nn1-c1ncc2c(n1)-c1ccccc1CC2 [Compound 93, N^3-(4-(4-cyclohexylpiperazin-1-yl)phenyl)-1-(5,6-dihydrobenzo[h]quinazolin-2-yl)-1H-1,2,4-triazole-3,5-diamine] |  |
| 1000 to 10000 | Nc1nc(Nc2ccc(N3CCN(C4CC5CCC4C5)CC3)cc2)nn1-c1ccccn1 (stereo not shown) [Compound 94, N^3-(4-(4-(bicyclo[2.2.1]heptan-2-yl)piperazin-1-yl)phenyl)-1-(pyridin-2-yl)-1H-1,2,4-triazole-3,5-diamine] |  |
| 1000 to 10000 | Nc1nc(Nc2ccc(N3CCN(C4CC5CCC4C5)CC3)cc2)nn1-c1nc2ccccc2s1 (stereo not shown) [Compound 96, 1-(benzo[d]thiazol-2-yl)-N^3-(4-(4-(bicyclo[2.2.1]heptan-2-yl)piperazin-1-yl)phenyl)-1H-1,2,4-triazole-3,5-diamine] |  |
| 1000 to 10000 | Nc1nc(Nc2ccc(N3CCN(C4CC5CCC4C5)CC3)cc2)nn1-c1cnc2ccccc2n1 (stereo not shown) [Compound 97, N^3-(4-(4-(bicyclo[2.2.1]heptan-2-yl)piperazin-1-yl)phenyl)-1-(quinoxalin-2-yl)-1H-1,2,4-triazole-3,5-diamine] |  |
| < 1000 | COc1cc2ncnc(-n3nc(Nc4ccc(N5CCN(C6CC7CCC6C7)CC5)cc4)nc3N)c2cc1OC (stereo not shown) [Compound 98, N^3-(4-(4-(bicyclo[2.2.1]heptan-2-yl)piperazin-1-yl)phenyl)-1-(6,7-dimethoxyquinazolin-4-yl)-1H-1,2,4-triazole-3,5-diamine] |  |
| 1000 to 10000 | COc1cc2nc(Cl)nc(-n3nc(Nc4ccc(N5CCN(C6CC7CCC6C7)CC5)cc4)nc3N)c2cc1OC (stereo not shown) [Compound 101, N^3-(4-(4-(bicyclo[2.2.1]heptan-2-yl)piperazin-1-yl)phenyl)-1-(2-chloro-6,7-dimethoxyquinazolin-4-yl)-1H-1,2,4-triazole-3,5-diamine] |  |
| < 1000 | COc1cc2c(-n3nc(Nc4ccc(N5CCN(C6CC7CCC6C7)CC5)cc4)nc3N)nc(Cl)nc2cc1O (stereo not shown) [Compound 102, 4-(5-amino-3-(4-(4-(bicyclo[2.2.1]heptan-2-yl)piperazin-1-yl)phenylamino)-1H-1,2,4-triazol-1-yl)-2-chloro-6-methoxyquinazolin-7-ol] |  |
| < 1000 | COc1cc2ncnc(-n3nc(Nc4ccc(N5CCN(C)CC5)c(F)c4)nc3N)c2cc1OC [Compound 105, 1-(6,7-dimethoxyquinazolin-4-yl)-N^3-(3-fluoro-4-(4-methylpiperazin-1-yl)phenyl)-1H-1,2,4-triazole-3,5-diamine] |  |
